Measured values: PubChem BioAssay (NCI)
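Here, GI50 denotes the concentration required for 50% inhibition of growth. TGI denotes the concentration required for complete inhibition of growth.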

Columns and labels:
Test in all cases: NCI-60 cell line screen, 384-well format
LOX IMVI melanoma = system: LOX IMVI melanoma
CAKI-1 renal = system: CAKI-1 renal
HOP-62 NSCLC = system: HOP-62 NSCLC
EKVX NSCLC = system: EKVX NSCLC
HOP-92 NSCLC = system: HOP-92 NSCLC
SF-539 CNS = system: SF-539 CNS
A498 renal = system: A498 renal
HCC-2998 colon = system: HCC-2998 colon
OVCAR-3 ovarian = system: OVCAR-3 ovarian
SW-620 colon = system: SW-620 colon
SN12C renal = system: SN12C renal
A549 NSCLC = system: A549 NSCLC
PC-3 prostate = system: PC-3 prostate
HT29 colon = system: HT29 colon
COLO 205 colon = system: COLO 205 colon
NCI/ADR-RES ovarian = system: NCI/ADR-RES ovarian
NCI-H23 lung = system: NCI-H23 lung
UO-31 renal = system: UO-31 renal
OVCAR-4 ovarian = system: OVCAR-4 ovarian
SK-OV-3 ovarian = system: SK-OV-3 ovarian
UACC-257 melanoma = system: UACC-257 melanoma
TK-10 renal = system: TK-10 renal
HCT-15 colon = system: HCT-15 colon
SR leukemia = system: SR leukemia
HL-60(TB) leukemia = system: HL-60(TB) leukemia
ACHN renal = system: ACHN renal
HCT-116 colon = system: HCT-116 colon
IGROV1 ovarian = system: IGROV1 ovarian
NCI-H226 lung = system: NCI-H226 lung
SNB-75 CNS = system: SNB-75 CNS
SNB-19 CNS = system: SNB-19 CNS
RXF 393 renal = system: RXF 393 renal
SF-268 CNS = system: SF-268 CNS
M14 melanoma = system: M14 melanoma
CCRF-CEM leukemia = system: CCRF-CEM leukemia
MALME-3M melanoma = system: MALME-3M melanoma
MOLT-4 leukemia = system: MOLT-4 leukemia
DU-145 prostate = system: DU-145 prostate
NCI-H322M lung = system: NCI-H322M lung
MDA-MB-468 breast = system: MDA-MB-468 breast
KM12 colon = system: KM12 colon
K-562 leukemia = system: K-562 leukemia
MDA-MB-231 breast = system: MDA-MB-231 breast
SK-MEL-28 melanoma = system: SK-MEL-28 melanoma
OVCAR-8 ovarian = system: OVCAR-8 ovarian
HS 578T breast = system: HS 578T breast
BT-549 breast = system: BT-549 breast
SF-295 CNS = system: SF-295 CNS

Structure (SMILES): O=C(O)C1(Cc2cccc(Nc3nccs3)n2)CCC(Oc2cccc(Cl)c2F)CC1 (stereo unspecified)
- GI50 (LOX IMVI melanoma): 10.3 µM
- TGI (LOX IMVI melanoma): 22.1 µM
- GI50 (CAKI-1 renal): 11.3 µM
- TGI (CAKI-1 renal): 25.5 µM
- GI50 (HOP-62 NSCLC): 1.89 µM
- TGI (HOP-62 NSCLC): 20.2 µM
- GI50 (EKVX NSCLC): 10.1 µM
- TGI (EKVX NSCLC): 24.5 µM
- GI50 (HOP-92 NSCLC): 10.4 µM
- TGI (HOP-92 NSCLC): 22.9 µM
- GI50 (SF-539 CNS): 3.09 µM
- TGI (SF-539 CNS): 20.6 µM
- GI50 (A498 renal): 11.6 µM
- TGI (A498 renal): 25 µM
- GI50 (HCC-2998 colon): 16 µM
- TGI (HCC-2998 colon): 29.7 µM
- GI50 (OVCAR-3 ovarian): 0.41 µM
- TGI (OVCAR-3 ovarian): 18.2 µM
- GI50 (SW-620 colon): 1.2 µM
- TGI (SW-620 colon): 19.9 µM
- GI50 (SN12C renal): 11.1 µM
- TGI (SN12C renal): 26.4 µM
- GI50 (A549 NSCLC): 8.56 µM
- TGI (A549 NSCLC): 24.2 µM
- GI50 (PC-3 prostate): 11.7 µM
- TGI (PC-3 prostate): 24.7 µM
- GI50 (HT29 colon): 4.21 µM
- TGI (HT29 colon): 17.1 µM
- GI50 (COLO 205 colon): 0.609 µM
- TGI (COLO 205 colon): 21.7 µM
- GI50 (NCI/ADR-RES ovarian): 0.329 µM
- TGI (NCI/ADR-RES ovarian): 13.3 µM
- GI50 (NCI-H23 lung): 0.562 µM
- TGI (NCI-H23 lung): 20.8 µM
- GI50 (UO-31 renal): 14 µM
- TGI (UO-31 renal): 27.7 µM
- GI50 (OVCAR-4 ovarian): 16.6 µM
- TGI (OVCAR-4 ovarian): 58.5 µM
- GI50 (SK-OV-3 ovarian): 11.5 µM
- TGI (SK-OV-3 ovarian): 26.3 µM
- GI50 (UACC-257 melanoma): 19.6 µM
- TGI (UACC-257 melanoma): 54.5 µM
- GI50 (TK-10 renal): 13.3 µM
- TGI (TK-10 renal): 31.3 µM
- GI50 (HCT-15 colon): 5.24 µM
- TGI (HCT-15 colon): 21.3 µM
- GI50 (SR leukemia): 0.0417 µM
- TGI (SR leukemia): 0.105 µM
- GI50 (HL-60(TB) leukemia): 0.397 µM
- TGI (HL-60(TB) leukemia): 1.53 µM
- GI50 (ACHN renal): 14.6 µM
- TGI (ACHN renal): 48.9 µM
- GI50 (HCT-116 colon): 0.0796 µM
- TGI (HCT-116 colon): 17.6 µM
- GI50 (IGROV1 ovarian): 13.4 µM
- TGI (IGROV1 ovarian): 27.6 µM
- GI50 (NCI-H226 lung): 3.06 µM
- TGI (NCI-H226 lung): 20.1 µM
- GI50 (SNB-75 CNS): 0.972 µM
- TGI (SNB-75 CNS): 28.5 µM
- GI50 (SNB-19 CNS): 12.1 µM
- TGI (SNB-19 CNS): 29.6 µM
- GI50 (RXF 393 renal): 0.358 µM
- TGI (RXF 393 renal): 12.3 µM
- GI50 (SF-268 CNS): 0.3 µM
- TGI (SF-268 CNS): 28 µM
- GI50 (M14 melanoma): 0.381 µM
- TGI (M14 melanoma): 21.4 µM
- GI50 (CCRF-CEM leukemia): 0.249 µM
- TGI (CCRF-CEM leukemia): 1.1 µM
- GI50 (MALME-3M melanoma): 18.2 µM
- TGI (MALME-3M melanoma): 37.4 µM
- GI50 (MOLT-4 leukemia): 0.0886 µM
- TGI (MOLT-4 leukemia): 1.05 µM
- GI50 (DU-145 prostate): 10.7 µM
- TGI (DU-145 prostate): 26.2 µM
- GI50 (NCI-H322M lung): 16.5 µM
- TGI (NCI-H322M lung): 32.6 µM
- GI50 (MDA-MB-468 breast): 0.122 µM
- TGI (MDA-MB-468 breast): 0.288 µM
- GI50 (KM12 colon): 0.124 µM
- TGI (KM12 colon): 16.1 µM
- GI50 (K-562 leukemia): 0.313 µM
- TGI (K-562 leukemia): 1.27 µM
- GI50 (MDA-MB-231 breast): 11.7 µM
- TGI (MDA-MB-231 breast): 31.3 µM
- GI50 (SK-MEL-28 melanoma): 15.7 µM
- TGI (SK-MEL-28 melanoma): 61.1 µM
- GI50 (OVCAR-8 ovarian): 0.46 µM
- TGI (OVCAR-8 ovarian): 20.3 µM
- GI50 (HS 578T breast): 0.0962 µM
- TGI (HS 578T breast): 17.9 µM
- GI50 (BT-549 breast): 0.573 µM
- TGI (BT-549 breast): 22.3 µM
- GI50 (SF-295 CNS): 2.02 µM
- TGI (SF-295 CNS): 23.4 µM
